Source: patent US10626144B2, “Peptide derivatives and uses thereof” (Nosopharm, priority 2014, dated 2020)
Numbered stars: 1 amine (or outer) side, 2 acyl side, 3 side chain; on linkers, the order of the positions; unused ones are H or OH. Square brackets hold non-standard residues; d marks the D form. Peptide text beside a SMILES is read from it. * marks the point of attachment. ξ: configuration not given here. Phe(2-CF3) = N[C@@H](Cc1ccccc1C(F)(F)F)C(=O)O; Phe(3,4-F2) = N[C@@H](Cc1ccc(F)c(F)c1)C(=O)O; Oic(3aξ,7aξ) = O=C(O)[C@@H]1CC2CCCCC2N1; Phe(3-Me) = Cc1cccc(C[C@H](N)C(=O)O)c1; Dab(3S-OH) = NC[C@H](O)[C@H](N)C(=O)O; X4 = N=C(N)NCC/C=C(/N[*:1])C(=O)[*:2]; 3Pal = N[C@@H](Cc1cccnc1)C(=O)O; ΔZArg = N=C(N)NCC/C=C(\N)C(=O)O; Lys(Me) = CNCCCC[C@H](N)C(=O)O; dOrn = NCCC[C@@H](N)C(=O)O; Dab = NCC[C@H](N)C(=O)O; NH(CH2)5NH2 = NCCCCCN*; NH(CH2)4NH2 = NCCCCN*; ξAze = O=C(O)C1CCN1

What was measured:
Experiment in all cases: MIC, broth microdilution (CLSI), reference strain
Settings in all cases: CAMHB
[1] = system: Acinetobacter baumannii ATCC 19606
[2] = system: Escherichia coli ATCC 25922
[3] = system: Pseudomonas aeruginosa ATCC 27853
[4] = system: Staphylococcus aureus ATCC 13709

| Compound | Ab: MIC Acinetobacter baumannii ATCC 19606 [1] | Ec: MIC Escherichia coli ATCC 25922 [2] | Pa: MIC Pseudomonas aeruginosa ATCC 27853 [3] | Sa: MIC Staphylococcus aureus ATCC 13709 [4] |
| --- | --- | --- | --- | --- |
| N=C(N)NCC/C=C(/NC(=O)[C@H](CCCCN)NC(=O)[C@H](Cc1cnc[nH]1)NC(=O)[C@@H]1CCCN1C(=O)[C@@H](CCCN)NC(=O)CNC(=O)[C@@H](NC(=O)[C@@H](NC(=O)[C@@H](N)CCCCN)[C@@H](O)CN)[C@@H](O)CN)C(=O)N[C@@H](CCCCN)C(=O)NCCCCN [22.7] (H-K[Dab(3S-OH)][Dab(3S-OH)]G[dOrn]PHK[X4]K-{NH(CH2)4NH2}) | + (≤32 μg/mL) | ++ (≤8 μg/mL) | ++ (≤8 μg/mL) | ++ (≤8 μg/mL) |
| NCCCCNC(=O)[C@H](CCCCN)NC(=O)[C@@H](CCCCN)NC(=O)[C@H](CCCCN)NC(=O)[C@H](Cc1cnc[nH]1)NC(=O)[C@@H]1CCCN1C(=O)[C@@H](CCCN)NC(=O)CNC(=O)[C@@H](NC(=O)[C@@H](NC(=O)[C@@H](N)CCCCN)[C@@H](O)CN)[C@@H](O)CN [22.21] (H-K[Dab(3S-OH)][Dab(3S-OH)]G[dOrn]PHK[dK]K-{NH(CH2)4NH2}) | − (>32 μg/mL) | − (>32 μg/mL) | − (>32 μg/mL) | ++ (≤8 μg/mL) |
| CNCCCC[C@H](NC(=O)[C@H](Cc1cnc[nH]1)NC(=O)[C@@H]1CCCN1C(=O)[C@@H](CCCN)NC(=O)CNC(=O)[C@H](C)NC(=O)[C@@H](NC(=O)[C@@H](N)CCCCN)[C@@H](O)CN)C(=O)N[C@H](CCCNC(=N)N)C(N)=O [24.155] (H-K[Dab(3S-OH)]AG[dOrn]PH[Lys(Me)][dR]-NH2) | − (>32 μg/mL) | − (>32 μg/mL) | − (>32 μg/mL) | ++ (≤8 μg/mL) |
| Cc1cccc(C[C@H](NC(=O)[C@@H]2CCCN2C(=O)[C@@H](CCCN)NC(=O)CNC(=O)[C@H](CCN)NC(=O)[C@@H](NC(=O)[C@@H](N)CCCCN)[C@@H](O)CN)C(=O)N[C@@H](CCCCN)C(=O)N/C(=C\CCNC(=N)N)C(=O)O)c1 [21.8] (H-K[Dab(3S-OH)][Dab]G[dOrn]P[Phe(3-Me)]K[ΔZArg]-OH) | − (>32 μg/mL) | ++ (≤8 μg/mL) | − (>32 μg/mL) | ++ (≤8 μg/mL) |
| C[C@H](NC(=O)[C@@H](NC(=O)[C@@H](N)CCCCN)[C@@H](O)CN)C(=O)NCC(=O)N[C@H](CCCN)C(=O)N1CCC[C@H]1C(=O)N[C@@H](Cc1ccc(F)c(F)c1)C(=O)N[C@@H](CCCCN)C(=O)N/C(=C\CCNC(=N)N)C(=O)O [24.84] (H-K[Dab(3S-OH)]AG[dOrn]P[Phe(3,4-F2)]K[ΔZArg]-OH) | − (>32 μg/mL) | ++ (≤8 μg/mL) | − (>32 μg/mL) | ++ (≤8 μg/mL) |
| N=C(N)NCC/C=C(\NC(=O)[C@H](CCCCN)NC(=O)[C@H](Cc1cnc[nH]1)NC(=O)[C@@H]1CCCN1C(=O)[C@@H](CCCN)NC(=O)CNC(=O)[C@H](CCN)NC(=O)[C@@H](NC(=O)[C@@H](N)CCCCN)[C@@H](O)CN)C(=O)O [21.2] (H-K[Dab(3S-OH)][Dab]G[dOrn]PHK[ΔZArg]-OH) | − (>32 μg/mL) | ++ (≤8 μg/mL) | − (>32 μg/mL) | ++ (≤8 μg/mL) |
| C[C@H](NC(=O)[C@H](CCN)NC(=O)[C@@H](N)CCCCN)C(=O)NCC(=O)N[C@H](CCCN)C(=O)N1CCC[C@H]1C(=O)N[C@@H](Cc1cnc[nH]1)C(=O)N[C@@H](CCCCN)C(=O)N/C(=C\CCNC(=N)N)C(=O)N[C@H](CCCCN)C(=O)NCCCCN [14.11] (H-K[Dab]AG[dOrn]PHK[ΔZArg][dK]-{NH(CH2)4NH2}) | − (>32 μg/mL) | − (>32 μg/mL) | − (>32 μg/mL) | ++ (≤8 μg/mL) |
| CC(=O)NCCCC[C@H](N)C(=O)N[C@H](C(=O)N[C@@H](C)C(=O)NCC(=O)N[C@H](CCCN)C(=O)N1CCC[C@H]1C(=O)N[C@@H](Cc1cnc[nH]1)C(=O)N[C@@H](CCCCN)C(=O)N/C(=C\CCNC(=N)N)C(=O)N[C@@H](CCCCN)C(=O)NCCCCN)[C@@H](O)CN [24.9] (H-K(Ac)[Dab(3S-OH)]AG[dOrn]PHK[ΔZArg]K-{NH(CH2)4NH2}) | − (>32 μg/mL) | − (>32 μg/mL) | − (>32 μg/mL) | + (≤32 μg/mL) |
| COC[C@H](NC(=O)[C@@H]1CCCN1C(=O)[C@@H](CCCN)NC(=O)CNC(=O)[C@H](C)NC(=O)[C@@H](NC(=O)[C@@H](N)CCCCN)[C@@H](O)CN)C(=O)N[C@@H](CCCCN)C(=O)N/C(=C\CCNC(=N)N)C(=O)O [24.136] (H-K[Dab(3S-OH)]AG[dOrn]PS(Me)K[ΔZArg]-OH) | − (>32 μg/mL) | − (>32 μg/mL) | − (>32 μg/mL) | − (>32 μg/mL) |
| C[C@H](NC(=O)[C@@H](NC(=O)[C@@H](N)CCCCN)[C@@H](O)CN)C(=O)NCC(=O)N[C@H](CCCN)C(=O)N1CCC[C@H]1C(=O)N[C@@H](Cc1cccnc1)C(=O)N[C@@H](CCCCN)C(=O)N/C(=C\CCNC(=N)N)C(=O)O [24.107] (H-K[Dab(3S-OH)]AG[dOrn]P[3Pal]K[ΔZArg]-OH) | − (>32 μg/mL) | + (≤32 μg/mL) | − (>32 μg/mL) | + (≤32 μg/mL) |
| C[C@H](NC(=O)[C@H](CCN)NC(=O)[C@@H](N)CCCCN)C(=O)NCC(=O)N[C@H](CCCN)C(=O)N1CCC[C@H]1C(=O)N[C@@H](Cc1cnc[nH]1)C(=O)N[C@@H](CCCCN)C(=O)N/C(=C\CCNC(=N)N)C(=O)N[C@@H](CCCCN)C(=O)NCCCCCN [14.5] (H-K[Dab]AG[dOrn]PHK[ΔZArg]K-{NH(CH2)5NH2}) | − (>32 μg/mL) | + (≤32 μg/mL) | − (>32 μg/mL) | ++ (≤8 μg/mL) |
| N=C(N)NCC/C=C(\NC(=O)[C@H](CCCCN)NC(=O)[C@H](Cc1cnc[nH]1)NC(=O)[C@@H]1CCCN1C(=O)[C@@H](CCCN)NC(=O)CNC(=O)[C@H](CO)NC(=O)[C@H](CCN)NC(=O)[C@@H](N)CCCCN)C(=O)N[C@@H](CCCCN)C(=O)NCCCCN [16.1] (H-K[Dab]SG[dOrn]PHK[ΔZArg]K-{NH(CH2)4NH2}) | − (>32 μg/mL) | − (>32 μg/mL) | − (>32 μg/mL) | ++ (≤8 μg/mL) |
| C[C@H](NC(=O)[C@@H](NC(=O)[C@@H](N)CCCCN)[C@@H](O)CN)C(=O)NCC(=O)N[C@H](CCCN)C(=O)N1CCC[C@H]1C(=O)N[C@@H](CCC(N)=O)C(=O)N[C@@H](CCCCN)C(=O)N/C(=C\CCNC(=N)N)C(=O)N[C@@H](CCCCN)C(=O)NCCCCN [24.21] (H-K[Dab(3S-OH)]AG[dOrn]PQK[ΔZArg]K-{NH(CH2)4NH2}) | − (>32 μg/mL) | ++ (≤8 μg/mL) | − (>32 μg/mL) | ++ (≤8 μg/mL) |
| C[C@H](NC(=O)[C@@H](NC(=O)[C@@H](N)CCCCN)[C@@H](O)CN)C(=O)NCC(=O)N[C@H](CCCN)C(=O)N1C2CCCCC2C[C@H]1C(=O)N[C@@H](Cc1cnc[nH]1)C(=O)N[C@@H](CCCCN)C(=O)N/C(=C\CCNC(=N)N)C(=O)O (stereo partly drawn) [24.75] (H-K[Dab(3S-OH)]AG[dOrn][Oic(3aξ,7aξ)]HK[ΔZArg]-OH) | − (>32 μg/mL) | + (≤32 μg/mL) | − (>32 μg/mL) | + (≤32 μg/mL) |
| C[C@H](NC(=O)[C@H](CCN)NC(=O)[C@@H](N)CCCCN)C(=O)NCC(=O)N[C@H](CCCN)C(=O)N1CCC1C(=O)N[C@@H](Cc1cnc[nH]1)C(=O)N[C@@H](CCCCN)C(=O)N/C(=C\CCNC(=N)N)C(=O)N[C@@H](CCCCN)C(=O)NCCCCN (some centres unmarked) [14.18] (H-K[Dab]AG[dOrn][ξAze]HK[ΔZArg]K-{NH(CH2)4NH2}) | − (>32 μg/mL) | − (>32 μg/mL) | − (>32 μg/mL) | ++ (≤8 μg/mL) |
| C[C@H](NC(=O)[C@@H](NC(=O)[C@@H](N)CCCCN)[C@@H](O)CN)C(=O)NCC(=O)N[C@H](CCCN)C(=O)N1CCC[C@H]1C(=O)N[C@@H](Cc1ccccc1C(F)(F)F)C(=O)N[C@@H](CCCCN)C(=O)N/C(=C\CCNC(=N)N)C(=O)O [24.79] (H-K[Dab(3S-OH)]AG[dOrn]P[Phe(2-CF3)]K[ΔZArg]-OH) | − (>32 μg/mL) | + (≤32 μg/mL) | − (>32 μg/mL) | ++ (≤8 μg/mL) |
| N=C(N)NCC/C=C(\NC(=O)[C@H](CCCCN)NC(=O)[C@H](Cc1cnc[nH]1)NC(=O)[C@@H]1CCCN1C(=O)[C@@H](CCCN)NC(=O)CNC(=O)[C@@H](NC(=O)[C@H](CCN)NC(=O)[C@@H](N)CCCCN)[C@@H](O)CN)C(=O)N[C@@H](CCCCN)C(=O)NCCCCN [12.1] (H-K[Dab][Dab(3S-OH)]G[dOrn]PHK[ΔZArg]K-{NH(CH2)4NH2}) | − (>32 μg/mL) | − (>32 μg/mL) | − (>32 μg/mL) | ++ (≤8 μg/mL) |
